Results taken from patent US5602174A, “Treatment” (Beecham Wuefling GmbH & Co., priority 1986, dated 1997).

Key:
[1] = Haemodynamic profile in anaesthetized rats; format: in vivo, rat; set-up: Dhr^20 (i.v. dose which reduces heart rate by ca. 20%) / Dhr^20 (dose which reduces heart rate by ca. 20%): unit not given here
Excerpt: The effect of compounds of the invention on heart rate, systolic left ventricular pressure, left ventricular dp/dt max and mean arterial blood pressure was investigated so as to obtain information on the anti-anginal potential of these compounds, by reducing the oxygen demand of the ischaemic heart.
*Dhr^20 = i.v. dose which reduces heart rate by ca. 20%
**LVP = systolic left ventricular pressure
***BP = mean arterial blood pressure
^a = i.d. administration

coronary spasm = test: Vasopressin test in anaesthetized rats (coronary spasm, ST-segment elevation in the ECG); format: in vivo, rat; settings: 0.6 g/kg i.d., vasopressin (Lysopressin 1 I.U./kg) i.v.
Method: Vasopressin (Lysopressin: 1 I.U./kg) was administered intravenously in order to provoke coronary spasm (ST-segment elevation in the ECG).
The ability of test compounds to reduce coronary spasm is taken as a measure of their anti-anginal potential in spasm-induced angina pectoris. (Ref. Drug. Res. 33(11), 8,1117-1121 (1983)).

[2] = i.v. at Dhr^20, anaesthetized rat

Row | Structure (SMILES) | % effect of Dhr^20 on BP (mean arterial blood pressure) [1, 2] | % effect of Dhr^20 on LVP (systolic left ventricular pressure) [1, 2] | % effect of Dhr^20 on dp/dtmax (left ventricular dp/dt max) [1, 2] [%] | Dhr^20 (i.v. dose which reduces heart rate by ca. 20%) ([1]; i.v., anaesthetized rat) | i.v. duration of action on heart rate (rat) ([1]; i.v., anaesthetized rat) [min] | active against coronary spasm (coronary spasm) | % effect of Dhr^20 on BP (mean arterial blood pressure) ([1]; rat, in vivo) [%] | Dhr^20 (dose which reduces heart rate by ca. 20%) ([1]; rat, in vivo) | duration of action on heart rate (rat) ([1]; rat, in vivo) [min] | % effect of Dhr^20 on BP (mean arterial blood pressure) ([1]; rat, in vivo, iv) [%] | % effect of Dhr^20 on LVP (systolic left ventricular pressure) ([1]; rat, in vivo, iv) [%] | Dhr^20 (i.v. dose which reduces heart rate by ca. 20%) ([1]; rat, in vivo, iv) | i.v. duration of action on heart rate (rat) ([1]; rat, in vivo, iv) [min]
1 | CCCCC(=O)N(CCCN(C)CCc1ccc(OC)c(OC)c1)c1ccc(OC)c(OC)c1 [Example E12, (N-[3,4-Dimethoxyphenyl]-N-3-[N'-2-(3,4-dimethoxyphenyl)-ethyl-N'-methylamino]-propyl)-pentanoic acid amide] | -11% | -6% | -6 | 1.6 | 10 |  |  |  |  |  |  |  | 
2 | COc1ccc(CCN(C)CCCN(Cc2ccccc2[N+](=O)[O-])c2ccc(OC)c(OC)c2)cc1OC [Example E1] | 0% | -2% | -3 | 1.6 | 10 | active |  |  |  |  |  |  | 
3 | CCCNC(=O)N(CCCN(C)CCc1ccc(OC)c(OC)c1)c1ccc(OC)c(OC)c1 [Example E27, (N-[3,4-Dimethoxyphenyl]-N-3-[N'-2-(3,4-dimethoxyphenyl)-ethyl-N'-methylamino]-propyl)-N"-n-propyl-urea] | -4% | -2% | -1 | 6.4 | 5 to 10 |  |  |  |  |  |  |  | 
4 | COc1ccc(CCN(C)CCCN(C(=O)Oc2ccccc2)c2ccc(OC)c(OC)c2)cc1OC [Example E25, (N-[3,4-Dimethoxyphenyl]-N-3-[N'-2-(3,4-dimethoxyphenyl)-ethyl-N'-methylamino]-propyl)-phenyl-urethane] | -14% | -10% | -2 | 0.8 | 10 |  |  |  |  |  |  |  | 
5 | COc1ccc(CCN(C)CCCN(Cc2ccc([N+](=O)[O-])cc2)c2ccc(OC)c(OC)c2)cc1OC [Example E6, (N-[3,4-Dimethoxyphenyl]-N-3-[N'-2-(3,4-dimethoxyphenyl)-ethyl-N'-methylamino]-propyl)-(4-nitro)-benzylamine] | +1% | +5% | -5 | 0.4 | 60 |  |  |  |  |  |  |  | 
6 | COc1ccc(CCN(C)CCCN(C(=O)NCc2ccccc2)c2ccc(OC)c(OC)c2)cc1OC [Example E30, (N-[3,4-Dimethoxyphenyl]-N-3-[N'-2-(3,4-dimethoxyphenyl)-ethyl-N'-methylamino]-propyl)-N"-benzylurea] | -15% | -10% | -20 | 1.6 | 10 |  |  |  |  |  |  |  | 
7 | CCCCOC(=O)N(CCCN(C)CCc1ccc(OC)c(OC)c1)c1ccc(OC)c(OC)c1 [Example E24, (N-[3,4-Dimethoxyphenyl]-N-3-[N'-2-(3,4-dimethoxyphenyl)-ethyl-N'methylamino]-propyl)-n-butyl-urethane] | -15% | -13% | -8 | 3.2 | 10 |  |  |  |  |  |  |  | 
8 | COc1ccc(CCN(C)CCCN(Cc2ccccc2)c2ccc(OC)c(OC)c2)cc1OC [Example E4, (N-[3,4-Dimethoxyphenyl]-N-3-[N'-2-(3,4-dimethoxyphenyl)-ethyl-N'-methylamino]-propyl)-benzylamine] | -6% | -3% | -12 | 3.2 | 10 |  |  |  |  |  |  |  | 
9 | COc1ccc(CCN(C)CCCN(C(=O)CCc2ccccc2)c2ccc(OC)c(OC)c2)cc1OC [Example E15, (N-[5,4-Dimethoxyphenyl]-N-3-[N'-2-(3,4-dimethoxyphenyl)-ethyl-N'-methylamino]-propyl)-(3-phenyl)propanoic acid amide] | -8% | -7% | -7 | 1.6 | 10 |  |  |  |  |  |  |  | 
10 | CCCCCN(CCCN(C)CCc1ccc(OC)c(OC)c1)c1ccc(OC)c(OC)c1 [Example E34, (N-[3,4-Dimethoxyphenyl]-N-3-[N'-2-(3,4-dimethoxyphenyl)-ethyl-N'-methylamino]-propyl)-n-pentylamine] | -9% | -9% | -10 | 1.6 | 5 to 10 |  |  |  |  |  |  |  | 
11 | COc1ccc(CCN(C)CCCN(c2ccc(OC)c(OC)c2)c2ncc([N+](=O)[O-])cc2[N+](=O)[O-])cc1OC [Example E44] | -10% | -6% | -8 | 3.2 | 10 |  |  |  |  |  |  |  | 
12 | COc1ccc(CCN(C)CCCN(C(=O)c2ccc([N+](=O)[O-])cc2)c2ccc(OC)c(OC)c2)cc1OC [Example E50, (N-[3,4-Dimethoxyphenyl]-N-3-[N'-2-(3,4-dimethoxyphenyl)-ethyl-N'-methyl-amino]-propyl)-4-nitrobenzamide] |  |  |  |  |  |  | -6 | 16 | > 90 | -1 | -1 | 1.6 | 10
13 | COc1ccc(CCN(C)CCN(C(=O)NC(C)c2ccccc2)c2ccc(OC)c(OC)c2)cc1OC (centres unmarked) [Example E32] | -13% | -7% | -3 | 3.2 | 10 |  |  |  |  |  |  |  | 
